Test results: US20250235499A1, “ANTI-OVARIAN CANCER PHARMACEUTICAL COMPOSITION AND ACTION TARGET THEREOF” (Zhejiang Chinese Medical University, priority 2024, published 2025)

Tests used:
[1] = test system: E-cadherin, N-cadherin, Vimentin; assay: Western Blot of tumor body EMT related proteins in tumor bearing nude mice; assay type: in vivo, BALB/c nude mice; settings: nude mouse tumor body, compared to the Control group
Description: The expression of EMT related proteins was shown in FIG. 30: (1) represented the Control group; (2) represented the DDP group; (3) represented the CA group; (4) represented the BDMC group; and (5) represented the CA+BDMC group.

[2] = test system: CDK4, Cyclin D1, P21 in SKOV3 cells; assay: Expression of cell cycle related proteins in cells; assay type: cell-based, human
[3] = test system: MCM2, CDK4, Cyclin D1, P21; assay: Western Blot of tumor body cyclin in tumor bearing nude mice; assay type: in vivo, BALB/c nude mice; settings: nude mouse tumor body, compared to the Control group
Description: The expression of nude mice tumor body cyclin and EMT related proteins in tumor bearing nude mice after intervention with DDP, CA, BDMC, and combined administration was shown in FIG. 29. In the figure, 1 represented the Control group; 2 represented the DDP group; 3 represented the CA group; 4 represented the BDMC group; and 5 represented the CA+BDMC group.

[4] = test system: CDK4, Cyclin D1, P21 in Hey cells; assay: Expression of cell cycle related proteins in cells; assay type: cell-based, human
[5] = test system: MCM2, CDK4, Cyclin D1, P21; assay: Immunohistochemical assay of tumor body cell cycle related proteins in tumor bearing nude mice; assay type: in vivo, BALB/c nude mice; settings: nude mouse tumor body, compared to the Control group
Procedure: The immunohistochemistry of tumor body cyclin in tumor bearing nude mice after intervention with DDP, CA, BDMC, and combined administration was shown in FIG. 28. The image was magnified by 400×, with a scale of 10 μM. The expression of MCM2, CDK4, and Cyclin D1 proteins in the CA group, BDMC group, and CA+BDMC group decreased compared to the Control group; and the expression of MCM2, CDK4, and Cyclin D1 proteins in the CA+BDMC group decreased compared to the CA group and BDMC group. The expression of P21 protein in the CA group, BDMC group, and CA+BDMC group increased compared to the Control group; and the expression of P21 protein in the CA+BDMC group increased compared to the CA group and BDMC group.

[6] = test system: MCM2 protein in SKOV3 cells; assay: MCM2 protein expression in ovarian cancer cell after intervention; assay type: cell-based, human; settings: SKOV3, 24 hours, 100 μmol/L CA, 6.25 μmol/L BDMC; compared to the Control group
Procedure: (§1) The effect of intervention on MCM2 protein expression in the SKOV3 and Hey ovarian cancer cells for 24 hours in the CA group using 100 μmol/L CA, the BDMC group using 6.25 μmol/L BDMC, and the CA+BDMC group using 100 μmol/L CA+6.25 μmol/L BDMC in Example 1 was shown in FIGS. 16A-16B, wherein A represented the expression of MCM2 protein in SKOV3 cells; B represented the expression of MCM2 protein in Hey cells compared to the Control group, #P<0.05, ##P<0.01; and compared with the CA+BDMC group, &P<0.05, &&P<0.01.

[7] = test system: MCM2 protein in Hey cells; assay: as above; assay type: cell-based, human; settings: 24 hours, 100 μmol/L CA, 6.25 μmol/L BDMC, compared to the Control group
Procedure: as §1

[8] = test system: E-cadherin, N-cadherin, Vimentin in SKOV3 cells; assay: Expression of EMT related proteins in cells; assay type: cell-based, human
[9] = test system: E-cadherin, N-cadherin, Vimentin in Hey cells; assay: Expression of EMT related proteins in cells; assay type: cell-based, human
[10] = SKOV3 OE-MCM2 cells (MCM2 overexpression), vs OE-MCM2 group
[11] = SKOV3 OE-NC cells (empty vector), vs OE-NC group
[12] = SKOV3 sh-MCM2 cells (MCM2 knockdown), vs sh-MCM2 group
[13] = SKOV3 sh-NC cells (empty vector), vs sh-NC group
[14] = Hey OE-MCM2 cells (MCM2 overexpression), vs OE-MCM2 group
[15] = Hey OE-NC cells (empty vector), vs OE-NC group
[16] = Hey sh-MCM2 cells (MCM2 knockdown), vs sh-MCM2 group
[17] = Hey sh-NC cells (empty vector), vs sh-NC group

COc1ccc(-c2coc3cc(O)ccc3c2=O)cc1O [CA, calycosin]
expression of E-cadherin protein (Western Blot) [1]: significantly increased | expression of N-cadherin protein (Western Blot) [1]: significantly decreased | expression of Vimentin protein (Western Blot) [1]: significantly decreased | expression of CDK4 [2, 10]: no significant change | expression of Cyclin D1 [2, 10]: no significant change | expression of P21 [2, 10]: no significant change | expression of CDK4 [2, 11]: significantly decreased | expression of Cyclin D1 [2, 11]: significantly decreased | expression of P21 [2, 11]: significantly increased | expression of CDK4 [2, 12]: no significant change | expression of Cyclin D1 [2, 12]: no significant change | expression of P21 [2, 12]: no significant change | expression of CDK4 [2, 13]: significantly decreased | expression of Cyclin D1 [2, 13]: significantly decreased | expression of P21 [2, 13]: significantly increased | expression of CDK4 protein (Western Blot) [3]: significantly decreased | expression of Cyclin D1 protein (Western Blot) [3]: significantly decreased | expression of MCM2 protein (Western Blot) [3]: significantly decreased | expression of P21 protein (Western Blot) [3]: significantly increased | expression of CDK4 [4, 14]: no significant change | expression of Cyclin D1 [4, 14]: no significant change | expression of P21 [4, 14]: no significant change | expression of CDK4 [4, 15]: significantly decreased | expression of Cyclin D1 [4, 15]: significantly decreased | expression of P21 [4, 15]: significantly increased | expression of CDK4 [4, 16]: no significant change | expression of Cyclin D1 [4, 16]: no significant change | expression of P21 [4, 16]: no significant change | expression of CDK4 [4, 17]: significantly decreased | expression of Cyclin D1 [4, 17]: significantly decreased | expression of P21 [4, 17]: significantly increased | expression of CDK4 protein (immunohistochemistry) [5]: decreased | expression of Cyclin D1 protein (immunohistochemistry) [5]: decreased | expression of MCM2 protein (immunohistochemistry) [5]: decreased | expression of P21 protein (immunohistochemistry) [5]: increased | expression of the MCM2 protein [6]: significantly decreased | expression of the MCM2 protein [7]: significantly decreased | expression of E-cadherin [8, 10]: no significant change | expression of N-cadherin [8, 10]: no significant change | expression of Vimentin [8, 10]: no significant change | expression of E-cadherin [8, 11]: significantly increased | expression of N-cadherin [8, 11]: significantly decreased | expression of Vimentin [8, 11]: significantly decreased | expression of E-cadherin [8, 12]: no significant change | expression of N-cadherin [8, 12]: no significant change | expression of Vimentin [8, 12]: no significant change | expression of E-cadherin [8, 13]: significantly increased | expression of N-cadherin [8, 13]: significantly decreased | expression of Vimentin [8, 13]: significantly decreased | expression of E-cadherin [9, 14]: no significant change | expression of N-cadherin [9, 14]: no significant change | expression of Vimentin [9, 14]: no significant change | expression of E-cadherin [9, 15]: significantly increased | expression of N-cadherin [9, 15]: significantly decreased | expression of Vimentin [9, 15]: significantly decreased | expression of E-cadherin [9, 16]: no significant change | expression of N-cadherin [9, 16]: no significant change | expression of Vimentin [9, 16]: no significant change | expression of E-cadherin [9, 17]: significantly increased | expression of N-cadherin [9, 17]: significantly decreased | expression of Vimentin [9, 17]: significantly decreased
